“And” between values parts separate entries of the source, which are not always exact repeats. Equal entries are not always repeated.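 Exposure lasted 48 hours, with cells grown in 96-well plates and compounds tested at five concentrations. GI50: concentration for 50% inhibition of growth. TGI: total growth inhibition.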
Legend:
Assay in all cases: DTP human tumour cell line panel, 48 h
HOP-62 NSCLC = system: HOP-62 NSCLC
SW-620 colon = system: SW-620 colon
NCI-H522 lung = system: NCI-H522 lung
NCI-H226 lung = system: NCI-H226 lung
HCC-2998 colon = system: HCC-2998 colon
SK-MEL-28 melanoma = system: SK-MEL-28 melanoma
A498 renal = system: A498 renal
ACHN renal = system: ACHN renal
CCRF-CEM leukemia = system: CCRF-CEM leukemia
DU-145 prostate = system: DU-145 prostate

SMILES	TGI (HOP-62 NSCLC)	TGI (SW-620 colon)	TGI (NCI-H522 lung)	TGI (NCI-H226 lung)	TGI (HCC-2998 colon)	TGI (SK-MEL-28 melanoma)	TGI (A498 renal)	TGI (ACHN renal)	TGI (CCRF-CEM leukemia)	TGI (DU-145 prostate)	GI50 (HOP-62 NSCLC)	GI50 (SW-620 colon)	GI50 (NCI-H522 lung)	GI50 (NCI-H226 lung)	GI50 (HCC-2998 colon)	GI50 (SK-MEL-28 melanoma)	GI50 (A498 renal)	GI50 (ACHN renal)	GI50 (CCRF-CEM leukemia)	GI50 (DU-145 prostate)
CCCCCCCCCCCCNC(C)=O	28.9 µM	30.9 µM	27.2 µM	35.9 µM	37.5 µM	31.4 µM	68 µM	70 µM	32.7 µM	> 100 µM										
CC[C@]12CCCN3CCc4c(n(c5ccccc45)C(=O)C1)[C@@H]32	> 100 µM	> 65 µM	7.2 µM	> 100 µM	19.4 µM	> 100 µM	> 65.9 µM	> 100 µM	33.1 µM	> 92.7 µM										
COc1ccc(C2CC(c3cc(OC)c(OC)c(OC)c3)=NO2)cc1OCCCCOc1cc2c(cc1OC)C(=O)N1CCC[C@H]1C=N2 (stereo partly specified)	3.43 µM	3.15 µM	2.28 µM	3.44 µM	3.04 µM	4.1 µM	3.22 µM	5.71 µM	4.27 µM	7.43 µM	1.68 µM	1.55 µM	0.61 µM	1.67 µM	1.58 µM	2.07 µM	1.72 µM	2.41 µM	1.41 µM	2.48 µM
O=[N+]([O-])c1ccc(S(=O)(=O)Cc2ccccc2)c([N+](=O)[O-])c1	9.13 µM	20.1 µM	2.81 µM	43.3 µM	19.7 µM	8.24 µM	31.1 µM	2.92 µM	0.498 µM	9.59 µM										
Cc1ccc2c(c1)C(C)Cc1c(ncnc1-n1cnc3ccccc31)N2C (stereo unspecified)	16 µM	17 µM	10.8 µM	27.4 µM	13.6 µM	29 µM	17.1 µM	20.3 µM	12.6 µM	14.4 µM	0.433 µM	0.281 µM	0.204 µM	3.5 µM	1.24 µM	12.3 µM	0.22 µM	0.953 µM	0.267 µM	0.529 µM
COc1cc(C2c3[nH]c4ccccc4c3C[C@H]3COC(=O)N23)cc(OC)c1OC (stereo partly specified)		> 100 µM	0.04 µM and < 0.01 µM	0.902 µM				> 100 µM	0.0789 µM	6.25 µM	< 0.01 µM	< 0.01 µM	< 0.01 µM		< 0.01 µM		< 0.01 µM	< 0.01 µM		
F	> 6870 µM		> 6870 µM	> 6870 µM	6190 µM		4390 µM	> 6870 µM	> 6870 µM	> 6870 µM	2560 µM		4970 µM	> 6870 µM	2610 µM		1620 µM	3050 µM	4540 µM	2800 µM
C=C1C(=O)O[C@H]2[C@H]1CC/C(CNC(=O)Cc1c[nH]c3ccccc13)=C\CC[C@@]1(C)O[C@@H]21	19.7 µM	1.37 µM	1.38 µM	7.81 µM	15.5 µM		26.9 µM	11.4 µM	1.02 µM	12.3 µM	5.06 µM	0.352 µM	0.365 µM	2.42 µM	4 µM		13.8 µM	1.11 µM	0.303 µM	0.834 µM

Source: PubChem BioAssay (NCI)
